Source: ChEMBL document CHEMBL4507325 (2021)

Key:
[1] = target: Aspartate aminotransferase, cytoplasmic (Homo sapiens, UniProt P17174); experiment: Aspartate transaminase assay (GOT1)
[2] = target: 5-hydroxytryptamine receptor 1A (Homo sapiens) (UniProt P08908); settings: Compound concentration 10.0 uM
[3] = target: 5-hydroxytryptamine receptor 2C (Homo sapiens) (UniProt P28335); settings: Compound concentration 10.0 uM
[4] = target: 5-hydroxytryptamine receptor 3A (Homo sapiens) (UniProt P46098); settings: Compound concentration 10.0 uM
[5] = target: 5-hydroxytryptamine receptor 7 (Homo sapiens) (UniProt P34969); settings: Compound concentration 10.0 uM
[6] = target: D(1A) dopamine receptor (Homo sapiens) (UniProt P21728); settings: Compound concentration 10.0 uM
[7] = target: D(3) dopamine receptor (Homo sapiens) (UniProt P35462); settings: Compound concentration 10.0 uM
[8] = target: D(1B) dopamine receptor (Homo sapiens) (UniProt P21918); settings: Compound concentration 10.0 uM
[9] = target: Sodium-dependent noradrenaline transporter (Homo sapiens) (UniProt P23975); settings: Compound concentration 10.0 uM
[10] = target: Delta-type opioid receptor (Homo sapiens) (UniProt P41143); settings: Compound concentration 10.0 uM
[11] = target: Kappa-type opioid receptor (Homo sapiens) (UniProt P41145); settings: Compound concentration 10.0 uM
[12] = target: T1, GABA-A receptor; anion channel (Rattus norvegicus) (UniProt O09028+P15431+P18506+P18508+P19969+P20236+P23574+P23576+P28471+P28473+P30191+P62813+P63079+P63138+Q91ZM7+Q9ES14); settings: Compound concentration 10.0 uM
[13] = target: Histamine H1 receptor (Homo sapiens) (UniProt P35367); settings: Compound concentration 10.0 uM
[14] = target: Beta-2 adrenergic receptor (Homo sapiens) (UniProt P07550); settings: Compound concentration 10.0 uM
[15] = target: Muscarinic acetylcholine receptor M1 (Homo sapiens) (UniProt P11229); settings: Compound concentration 10.0 uM
[16] = target: Muscarinic acetylcholine receptor M2 (Homo sapiens) (UniProt P08172); settings: Compound concentration 10.0 uM
[17] = target: Muscarinic acetylcholine receptor M5 (Homo sapiens) (UniProt P08912); settings: Compound concentration 10.0 uM
Rattus norvegicus = organism: Rattus norvegicus; settings: Compound concentration 10.0 uM
[18] = target: Sigma intracellular receptor 2 (Homo sapiens) (UniProt Q5BJF2); settings: Compound concentration 10.0 uM
[19] = target: Adenosine receptor A2a (Homo sapiens) (UniProt P29274); settings: Compound concentration 10.0 uM
[20] = target: Beta-1 adrenergic receptor (Homo sapiens) (UniProt P08588); settings: Compound concentration 10.0 uM
[21] = target: Cannabinoid receptor 1 (Homo sapiens) (UniProt P21554); settings: Compound concentration 10.0 uM
[22] = target: D(1A) dopamine receptor (Homo sapiens) (UniProt P21728); settings: Compound concentration 10.0 uM; remark: listed apart in the source
[23] = target: D(2) dopamine receptor (Homo sapiens) (UniProt P14416); settings: Compound concentration 10.0 uM
[24] = target: D(3) dopamine receptor (Homo sapiens) (UniProt P35462); settings: Compound concentration 10.0 uM; remark: listed apart in the source
[25] = target: Histamine H1 receptor (Homo sapiens) (UniProt P35367); settings: Compound concentration 10.0 uM; remark: listed apart in the source
[26] = target: Histamine H3 receptor (Homo sapiens) (UniProt Q9Y5N1); settings: Compound concentration 10.0 uM
[27] = target: Delta-type opioid receptor (Homo sapiens) (UniProt P41143); settings: Compound concentration 10.0 uM; remark: listed apart in the source
[28] = target: Purinergic P2Y (Rattus norvegicus) (UniProt O35811+Q9EPX4+P49651+Q63371+P41232+O35881+Q6GUG4); settings: Compound concentration 10.0 uM
[29] = target: 5-hydroxytryptamine receptor 1A (Homo sapiens) (UniProt P08908); settings: Compound concentration 10.0 uM; remark: listed apart in the source
[30] = target: Sodium-dependent noradrenaline transporter (Homo sapiens) (UniProt P23975); settings: Compound concentration 10.0 uM; remark: listed apart in the source
[31] = target: Sodium-dependent serotonin transporter (Homo sapiens) (UniProt P31645); settings: Compound concentration 10.0 uM
[32] = target: Glucocorticoid receptor (Homo sapiens) (UniProt P04150); settings: Compound concentration 10.0 uM
[33] = target: Alpha-2B adrenergic receptor (Homo sapiens) (UniProt P18089); settings: Compound concentration 10.0 uM
[34] = target: Type-2 angiotensin II receptor (Homo sapiens) (UniProt P50052); settings: Compound concentration 10.0 uM
[35] = target: T1, GABA-A receptor; anion channel (Rattus norvegicus); settings: Compound concentration 10.0 uM; remark: listed apart in the source
[36] = target: Glutamate receptor 2 (Homo sapiens) (UniProt P42262); settings: Rattus norvegicus; Compound concentration 10.0 uM
[37] = target: Insulin receptor (Homo sapiens) (UniProt P06213); settings: Rattus norvegicus; Compound concentration 10.0 uM
[38] = target: Muscarinic acetylcholine receptor M4 (Homo sapiens) (UniProt P08173); settings: Compound concentration 10.0 uM
[39] = target: 5-hydroxytryptamine receptor 2A (Homo sapiens) (UniProt P28223); settings: Compound concentration 10.0 uM
[40] = target: Androgen receptor (Homo sapiens) (UniProt P10275); settings: Compound concentration 10.0 uM
[41] = target: Growth hormone secretagogue receptor type 1 (Homo sapiens) (UniProt Q92847); settings: Compound concentration 10.0 uM
[42] = target: Progesterone receptor (Homo sapiens) (UniProt P06401); settings: Compound concentration 10.0 uM
[43] = target: Equilibrative nucleoside transporter 1/2/3/4 (Homo sapiens) (UniProt Q99808+Q7RTT9+Q14542+Q9BZD2); settings: Compound concentration 10.0 uM
Chain of Equilibrative nucleoside transporter 1/2/3/4 (Homo sapiens) (Q14542 whole entry, looked up): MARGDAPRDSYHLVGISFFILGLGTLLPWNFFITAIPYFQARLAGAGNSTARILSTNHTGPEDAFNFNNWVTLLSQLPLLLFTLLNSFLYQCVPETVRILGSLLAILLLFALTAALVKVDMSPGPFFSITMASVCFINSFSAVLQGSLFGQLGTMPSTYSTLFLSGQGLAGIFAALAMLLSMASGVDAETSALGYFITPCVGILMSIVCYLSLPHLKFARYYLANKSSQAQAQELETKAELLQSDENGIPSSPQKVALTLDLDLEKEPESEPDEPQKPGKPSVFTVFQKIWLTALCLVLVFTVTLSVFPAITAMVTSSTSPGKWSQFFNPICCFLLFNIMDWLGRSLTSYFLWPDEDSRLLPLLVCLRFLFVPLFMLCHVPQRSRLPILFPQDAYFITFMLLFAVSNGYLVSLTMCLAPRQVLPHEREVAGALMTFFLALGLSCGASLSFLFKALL
Chain of Equilibrative nucleoside transporter 1/2/3/4 (Homo sapiens) (Q7RTT9 whole entry, looked up): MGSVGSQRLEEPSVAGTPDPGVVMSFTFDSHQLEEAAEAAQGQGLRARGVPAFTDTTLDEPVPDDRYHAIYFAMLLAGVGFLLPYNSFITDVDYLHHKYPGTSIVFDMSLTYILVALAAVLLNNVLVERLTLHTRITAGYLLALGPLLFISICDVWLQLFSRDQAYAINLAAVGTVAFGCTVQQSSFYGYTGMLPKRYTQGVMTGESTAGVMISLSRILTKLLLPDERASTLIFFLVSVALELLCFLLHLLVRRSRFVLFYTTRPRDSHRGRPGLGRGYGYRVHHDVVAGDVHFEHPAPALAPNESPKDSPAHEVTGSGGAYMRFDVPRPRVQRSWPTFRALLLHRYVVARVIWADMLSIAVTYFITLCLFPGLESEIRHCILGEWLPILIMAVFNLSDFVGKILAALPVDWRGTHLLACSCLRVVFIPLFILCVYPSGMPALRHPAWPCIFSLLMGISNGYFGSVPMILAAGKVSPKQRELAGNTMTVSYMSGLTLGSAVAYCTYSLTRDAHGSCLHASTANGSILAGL
Chain of Equilibrative nucleoside transporter 1/2/3/4 (Homo sapiens) (Q99808 whole entry, looked up): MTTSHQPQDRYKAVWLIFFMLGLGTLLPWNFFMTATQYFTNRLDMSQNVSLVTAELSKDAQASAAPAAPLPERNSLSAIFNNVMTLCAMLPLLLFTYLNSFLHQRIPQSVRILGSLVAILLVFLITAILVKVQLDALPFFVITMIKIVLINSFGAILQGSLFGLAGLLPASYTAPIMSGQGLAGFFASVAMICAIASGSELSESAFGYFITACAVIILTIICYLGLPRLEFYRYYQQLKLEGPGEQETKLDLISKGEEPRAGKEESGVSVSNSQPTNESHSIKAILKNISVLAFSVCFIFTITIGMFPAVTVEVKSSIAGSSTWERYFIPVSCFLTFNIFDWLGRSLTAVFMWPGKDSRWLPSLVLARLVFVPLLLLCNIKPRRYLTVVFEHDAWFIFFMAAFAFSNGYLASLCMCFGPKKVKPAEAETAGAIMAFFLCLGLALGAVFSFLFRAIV
Chain of Equilibrative nucleoside transporter 1/2/3/4 (Homo sapiens) (Q9BZD2 whole entry, looked up): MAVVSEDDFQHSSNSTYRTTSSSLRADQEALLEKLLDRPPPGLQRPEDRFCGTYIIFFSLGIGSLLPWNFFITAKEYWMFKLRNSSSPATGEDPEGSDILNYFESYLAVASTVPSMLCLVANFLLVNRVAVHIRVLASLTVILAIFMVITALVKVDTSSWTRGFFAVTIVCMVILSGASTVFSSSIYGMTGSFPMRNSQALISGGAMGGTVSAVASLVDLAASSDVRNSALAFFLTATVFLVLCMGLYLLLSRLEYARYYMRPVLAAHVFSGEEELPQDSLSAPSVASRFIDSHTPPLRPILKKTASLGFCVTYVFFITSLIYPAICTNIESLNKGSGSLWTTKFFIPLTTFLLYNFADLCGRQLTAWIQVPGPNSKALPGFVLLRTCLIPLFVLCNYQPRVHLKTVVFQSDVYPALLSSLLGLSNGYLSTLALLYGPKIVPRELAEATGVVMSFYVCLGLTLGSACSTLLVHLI

Chain of 5-hydroxytryptamine receptor 1A (Homo sapiens) (P08908 whole entry): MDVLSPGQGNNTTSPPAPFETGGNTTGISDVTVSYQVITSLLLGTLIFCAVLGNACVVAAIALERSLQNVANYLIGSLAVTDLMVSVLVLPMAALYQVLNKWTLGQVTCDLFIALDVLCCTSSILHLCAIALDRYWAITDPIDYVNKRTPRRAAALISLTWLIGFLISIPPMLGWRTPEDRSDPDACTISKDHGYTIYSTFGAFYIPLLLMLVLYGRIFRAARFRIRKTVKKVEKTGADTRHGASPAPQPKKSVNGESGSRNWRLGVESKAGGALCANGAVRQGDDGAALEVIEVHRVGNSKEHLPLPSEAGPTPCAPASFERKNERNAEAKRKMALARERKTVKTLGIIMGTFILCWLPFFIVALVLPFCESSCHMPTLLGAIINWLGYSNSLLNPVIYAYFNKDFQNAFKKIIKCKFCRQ
Chain of D(1A) dopamine receptor (Homo sapiens) (P21728 whole entry): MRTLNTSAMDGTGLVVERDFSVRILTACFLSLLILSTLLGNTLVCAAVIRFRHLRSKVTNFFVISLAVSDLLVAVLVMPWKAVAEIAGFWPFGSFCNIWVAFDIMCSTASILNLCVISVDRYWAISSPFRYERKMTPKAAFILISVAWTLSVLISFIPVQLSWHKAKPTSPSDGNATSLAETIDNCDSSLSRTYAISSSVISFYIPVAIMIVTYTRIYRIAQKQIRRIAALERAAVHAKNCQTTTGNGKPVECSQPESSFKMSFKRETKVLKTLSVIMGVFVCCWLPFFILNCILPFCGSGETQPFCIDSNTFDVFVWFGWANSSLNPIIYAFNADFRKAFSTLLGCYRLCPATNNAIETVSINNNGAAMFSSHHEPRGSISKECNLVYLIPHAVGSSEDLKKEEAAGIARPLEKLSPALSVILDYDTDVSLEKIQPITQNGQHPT
Chain of Delta-type opioid receptor (Homo sapiens) (P41143 whole entry): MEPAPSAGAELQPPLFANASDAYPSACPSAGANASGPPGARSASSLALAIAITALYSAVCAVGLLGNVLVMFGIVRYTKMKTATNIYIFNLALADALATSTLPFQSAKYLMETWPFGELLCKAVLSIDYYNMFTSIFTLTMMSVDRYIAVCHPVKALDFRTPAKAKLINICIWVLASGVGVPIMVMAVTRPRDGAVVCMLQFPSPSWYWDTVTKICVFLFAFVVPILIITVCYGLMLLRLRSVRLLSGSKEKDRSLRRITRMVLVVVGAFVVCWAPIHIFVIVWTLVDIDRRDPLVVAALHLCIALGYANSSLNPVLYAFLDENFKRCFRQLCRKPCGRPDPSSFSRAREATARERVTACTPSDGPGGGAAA
Chain of Sodium-dependent noradrenaline transporter (Homo sapiens) (P23975 whole entry): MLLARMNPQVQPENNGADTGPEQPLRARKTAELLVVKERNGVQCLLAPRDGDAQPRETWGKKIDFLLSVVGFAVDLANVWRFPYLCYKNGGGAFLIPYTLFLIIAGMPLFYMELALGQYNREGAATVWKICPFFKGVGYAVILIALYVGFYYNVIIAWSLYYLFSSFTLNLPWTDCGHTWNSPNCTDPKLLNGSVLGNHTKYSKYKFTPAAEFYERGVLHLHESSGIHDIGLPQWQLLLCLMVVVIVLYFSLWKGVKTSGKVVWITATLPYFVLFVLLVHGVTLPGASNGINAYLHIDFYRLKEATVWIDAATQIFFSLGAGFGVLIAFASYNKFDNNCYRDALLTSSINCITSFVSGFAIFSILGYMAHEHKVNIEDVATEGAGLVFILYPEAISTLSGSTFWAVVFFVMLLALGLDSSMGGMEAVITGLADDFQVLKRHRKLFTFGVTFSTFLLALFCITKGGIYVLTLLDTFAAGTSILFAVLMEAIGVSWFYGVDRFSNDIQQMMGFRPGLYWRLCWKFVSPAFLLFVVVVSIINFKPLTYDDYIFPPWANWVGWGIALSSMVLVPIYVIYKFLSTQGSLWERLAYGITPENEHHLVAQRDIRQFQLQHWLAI
Chain of D(3) dopamine receptor (Homo sapiens) (P35462 whole entry): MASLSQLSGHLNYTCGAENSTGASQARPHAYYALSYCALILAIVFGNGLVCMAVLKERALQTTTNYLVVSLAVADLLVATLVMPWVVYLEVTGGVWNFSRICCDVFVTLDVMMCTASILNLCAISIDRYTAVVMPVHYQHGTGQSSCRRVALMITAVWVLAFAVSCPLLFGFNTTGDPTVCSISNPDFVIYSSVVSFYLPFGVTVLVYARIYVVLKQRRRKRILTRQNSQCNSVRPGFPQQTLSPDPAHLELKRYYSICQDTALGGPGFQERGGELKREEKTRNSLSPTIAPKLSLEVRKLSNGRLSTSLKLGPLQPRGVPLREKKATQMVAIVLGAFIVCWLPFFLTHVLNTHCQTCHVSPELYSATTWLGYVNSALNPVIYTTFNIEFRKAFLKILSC
Chain of Histamine H1 receptor (Homo sapiens) (P35367 whole entry): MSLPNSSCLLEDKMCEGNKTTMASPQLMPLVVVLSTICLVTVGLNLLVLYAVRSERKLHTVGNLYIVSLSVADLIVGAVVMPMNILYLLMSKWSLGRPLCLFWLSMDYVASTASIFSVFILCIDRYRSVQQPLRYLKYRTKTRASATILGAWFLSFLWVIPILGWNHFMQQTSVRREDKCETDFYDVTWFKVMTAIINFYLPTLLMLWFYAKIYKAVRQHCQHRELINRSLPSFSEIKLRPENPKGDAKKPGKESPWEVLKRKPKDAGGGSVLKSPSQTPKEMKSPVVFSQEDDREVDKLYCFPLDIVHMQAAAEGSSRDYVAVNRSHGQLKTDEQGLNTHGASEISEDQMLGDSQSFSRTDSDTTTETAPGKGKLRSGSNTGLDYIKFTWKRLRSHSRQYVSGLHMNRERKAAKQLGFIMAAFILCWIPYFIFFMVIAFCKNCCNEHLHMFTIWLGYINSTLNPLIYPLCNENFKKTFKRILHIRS
Chain of Sigma intracellular receptor 2 (Homo sapiens) (Q5BJF2 whole entry): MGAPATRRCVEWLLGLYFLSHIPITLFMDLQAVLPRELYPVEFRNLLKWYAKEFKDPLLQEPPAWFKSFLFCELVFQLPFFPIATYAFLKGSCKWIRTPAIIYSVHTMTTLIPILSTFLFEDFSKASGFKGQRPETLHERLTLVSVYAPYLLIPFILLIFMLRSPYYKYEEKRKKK

Cc1ccccc1Oc1cc(-n2c(=O)cc(C(F)(F)F)[nH]c2=O)c2ccccc2c1Cl [BAY-069]
IC50 [1]: > 50 µM (not active) | inhibition [2]: 8.88% | inhibition [3]: 0.89% | inhibition [4]: 20.3% | inhibition [5]: 13.1% | inhibition [6]: -0.83% | inhibition [7]: 8.85% | inhibition [8]: 18.7% | inhibition [9]: -1.01% | inhibition [10]: 14.5% | inhibition [11]: 37.5% | inhibition [12]: 11.3% | inhibition [13]: 10.3% | inhibition [14]: 11.2% | inhibition [15]: 17.8% | inhibition [16]: 39.2% | inhibition [17]: -5.66% | inhibition (Rattus norvegicus): 63.9% | inhibition [18]: -7.5% | inhibition [19]: -6% | inhibition [20]: 3% | inhibition [21]: 16% | inhibition [22]: 7% | inhibition [23]: -5% | inhibition [24]: 14% | inhibition [25]: -2% | inhibition [26]: 3% | inhibition [27]: -3% | inhibition [28]: -4% | inhibition [29]: 9% | inhibition [30]: 22% | inhibition [31]: 3% | inhibition [32]: 13% | inhibition [33]: -2% | inhibition [34]: 6% | inhibition [35]: 15% | inhibition [36]: 11% | inhibition [37]: 15% | inhibition [38]: -5% | inhibition [39]: 1% | inhibition [40]: 9% | inhibition [41]: 1% | inhibition [42]: -4% | inhibition [43]: 28%
